Source: US20090186361A1, “METHODS OF PREDICTING THE PHARMACEUTICAL TOXICITY OF TAXANES” (priority 2008, published 2009)

What was measured:
Format in all cases: in vivo, human
MAPT = experiment: Regression / mixed model of Toxicity Index on MAPT SNP genotype of recipient subjects; details: for Fixed effect Estimate, COL6_2 (MAPT_H1): TT=1, CC=0
Description: (§1) The GENOMELAB SNPSTREAM™ (Beckman) was utilized to accommodate up to 92,000 genotypes per day. This automated, multiplexed system can process up to 48 SNPs in each well of an arrayed 384-well plate. The SNPSTREAM™ operates at a consistent cost per genotype or per sample, regardless of run throughput, allowing users to cost-effectively zero in on targets with low-throughput studies as well as conduct high-throughput analyses.
(§2) The SNPSTREAM™ Genotyping System features a protocol with three steps. The technology is based on single-based primer extension technology. The system's high sensitivity delivers results using as little as 2 ng of genomic DNA. SNPWARE™ reagent kits were used. The kits included ready-to-use reagents, all performed in the original PCR plate according to the manufacturer's instructions, and incorporated herein by reference in its entirety.
(§3) Multiplexed reactions were spatially resolved on a SNPWARE™ Tag Array plate. Each of the 384 wells in a plate contained 16 or 52 unique oligonucleotides of a known sequence, or tag. Each tag on the plate was complementary to one of the tags of the 12 or 48 extension primers, plus four controls to ensure accuracy. After transfer to the Tag Array plate, each SNP was hybridized to its complementary tag. SNPs were then identified by their position in the well.
(§4) The process involved a multiplex PCR followed by an annealing reaction of the oligonucleotide to the specific PCR product. Next the oligonucleotide was extended by a single base which was fluorescently labeled with a terminating NTP and finally detected by two-colored fluorescence specific for the allele.
(§5) For each SNP, the -PCRU and -PCRL primers were first used to amplify a relevant DNA fragment surrounding the target SNP site. The components per reaction were: H2O, 3.0 μl; 10× PCR Buffer II, 0.5 μl; MgCl2 (25 mM), 1.0 μl; dNTPs (2.5 mM each), 0.18 μl; PCR Primer Pool (2.5 μM each), 0.1 μl; AMPLITAQ GOLD™ (5 U/μl), 0.125 μl for a total volume of 5.0 μl per reaction.
(§6) Primer -SNPU or SNPL was then used for single-base extension reaction. The thermocycler program was as follows: Step 1: 96° C. for 3 min; Step 2: 94° C. for 20 sec; Step 3: 40° C. for 11 sec; and Step 5: return to step 2 59 times, and finally to hold at 4° C.
(§7) A preliminary data analysis focused on the relationship between the Toxicity Index and the recipient subjects' demographic/genetic information. […] Univariate linear regression analysis was conducted first to find significant covariates in predicting the Toxicity Index in one of five cycles, then multivariable analysis was used to determine the best model in fitting the data. A mixed model for repeated measurement was implemented in modeling Toxicity Index in the first five cycles, and also in all cycles. Autoregressive covariance structure was used in the mixed model. SAS and Minitab were used in the analysis.
(§8) Covariates in the analysis included recoded binary demographic variables (sex, race, site, grade, stage) and recoded binary genetic variables.
(§9) Multivariable regression analysis was used to find the best model in predicting the Toxicity Index in each of the first five cycles.
(§10) A mixed model for repeated measurements was implemented to find the best model in fitting the longitudinal data. Autoregressive covariance structure was used in the mixed model. Toxicity Indexes in the first five cycles were included in the analysis.
(§11) To model Toxicity Indexes in all 21 cycles, a mixed model was used to find the best model. For the paclitaxel, Received dose and MAPT_H14 were significant fixed effects in predicting the longitudinal Toxicity Index in all cycles.

CYP3A5 = experiment: Regression of Toxicity Index on CYP3A5 SNP genotype of recipient subjects; details: for Para. Est., TI5 vs CYP3A5_3A (multivariable): multivariable analysis best model; for Para. Est., TI5 vs CYP3A5_3A (multivariable) / Para. Est., TI5 vs CYP3A5_3A1 / Para. Est., TI5 vs CYP3A5_3A: cycle 5
Description: as §1, §2, §3, §4, §5, §6, §7, §8, §9

[1] = Regression / mixed model of Toxicity Index on demographic variables and received dose
Experimental: as §7, §8, §9, §10, §11

## CC(=O)O[C@@]12CO[C@@H]1C[C@H](O)[C@@]1(C)C(=O)[C@H](O)C3=C(C)[C@@H](OC(=O)[C@H](O)[C@@H](NC(=O)OC(C)(C)C)c4ccccc4)C[C@@](O)([C@@H](OC(=O)c4ccccc4)[C@H]21)C3(C)C (relative stereo) [Docetaxel, Benzenepropanoic acid, β-(((1,1-dimethylethoxy)carbonyl)amino)-α-hydroxy-, 12b-(acetyloxy)-12-(benzoyloxy)-2a,3,4,4a,5,6,9,10,11,12,12a,12b-dodecahydro-4,6,11-trihydroxy-4a,8,13,13-tetramethyl-5-oxo-7,11-methano-1H-cyclodeca(3,4)benz(1,2-b)oxet-9-yl ester trihydrate, (2aR-(2aα,4β,4aβ,6β,9(αR*,βS),11α,12α,12aα,12bα))-]
MAPT; mixed model, longitudinal Toxicity Index in all cycles, Pr > |t| 0.0029
  Fixed effect Estimate, COL6_2 (MAPT_H1): 1.1286
MAPT; mixed model, longitudinal Toxicity Index in first five cycles, Pr > |t| 0.0170
  Fixed effect Estimate, COL6_2 (MAPT_H1): 1.1407
MAPT; multivariable analysis best model, cycle 4, rs17652121, TT = 1, CC/TC = 0, P-value 0.029
  Para. Est., TI4 vs MAPT_H2 (multivariable): −0.900
MAPT; multivariable regression with Site, cycle 3, rs3785883, GG = 1, AG = 0, P-value 0.003
  Para. Est., TI3 vs MAPT_H13 (multivariable): 1.408
MAPT; univariate linear regression, cycle 3, rs754512, AA = 1, TA/TT = 0, P-value 0.010
  Para. Est., TI3 vs MAPT_H1_H21: −1.107
MAPT; univariate linear regression, cycle 3, rs767058, AA = 1, AG/GG = 0, P-value 0.006
  Para. Est., TI3 vs MAPT_H1_H22: −1.166
MAPT; univariate linear regression, cycle 3, rs2055794, GG = 1, AA/AG = 0, P-value 0.010
  Para. Est., TI3 vs MAPT_H1_H23: −1.107
MAPT; univariate linear regression, cycle 3, rs3785883, GG = 1, AG = 0, P-value 0.013
  Para. Est., TI3 vs MAPT_H13: −1.245
MAPT; univariate linear regression, cycle 3, rs17652121, TT = 1, CC/TC = 0, P-value 0.006
  Para. Est., TI3 vs MAPT_H2: −1.166
MAPT; univariate linear regression, cycle 4, rs754512, AA = 1, TA/TT = 0, P-value 0.023
  Para. Est., TI4 vs MAPT_H1_H21: −0.953
MAPT; univariate linear regression, cycle 4, rs767058, AA = 1, AG/GG = 0, P-value 0.029
  Para. Est., TI4 vs MAPT_H1_H22: −0.900
MAPT; univariate linear regression, cycle 4, rs2055794, GG = 1, AA/AG = 0, P-value 0.023
  Para. Est., TI4 vs MAPT_H1_H23: −0.953
MAPT; univariate linear regression, cycle 4, rs17652121, TT = 1, CC/TC = 0, P-value 0.029
  Para. Est., TI4 vs MAPT_H2: −0.900
CYP3A5; rs776746, AG = 1, GG/AA = 0, P-value 0.024
  Para. Est., TI5 vs CYP3A5_3A (multivariable): −1.739
CYP3A5; univariate linear regression, cycle 4, rs15524, TC = 1, CC/TT = 0, P-value 0.045
  Para. Est., TI4 vs CYP3A5_3A1: −1.079
CYP3A5; univariate linear regression, cycle 4, rs776746, AG = 1, GG/AA = 0, P-value 0.045
  Para. Est., TI4 vs CYP3A5_3A: −1.079
CYP3A5; univariate linear regression, rs15524, TC = 1, CC/TT = 0, P-value 0.024
  Para. Est., TI5 vs CYP3A5_3A1: −1.739
CYP3A5; univariate linear regression, rs776746, AG = 1, GG/AA = 0, P-value 0.024
  Para. Est., TI5 vs CYP3A5_3A: −1.739
[1]; mixed model, longitudinal Toxicity Index in all cycles, Pr > |t| 0.0027
  Fixed effect Estimate, Grade 2: −0.9840
[1]; mixed model, longitudinal Toxicity Index in first five cycles, Pr > |t| 0.0106
  Fixed effect Estimate, Grade 2: −1.0426
[1]; multivariable regression with MAPT_H13, cycle 3, Prostate Gland = 1, Others = 0, P-value 0.001
  Para. Est., TI3 vs Site (multivariable): 2.365
[1]; univariate linear regression, cycle 3, Poorly Dif = 1, Others = 0, P-value 0.006
  Para. Est., TI3 vs Grade: −1.609
[1]; univariate linear regression, cycle 3, Prostate Gland = 1, Others = 0, P-value 0.046
  Para. Est., TI3 vs Site: 1.962

## CC(=O)O[C@H]1C(=O)[C@@]2(C)[C@H]([C@H](OC(=O)c3ccccc3)[C@]3(O)C[C@H](OC(=O)[C@H](O)[C@@H](NC(=O)c4ccccc4)c4ccccc4)C(C)=C1C3(C)C)[C@]1(OC(C)=O)CO[C@@H]1C[C@@H]2O [Paclitaxel, (2aR,4S,4aS,6R,9S,11S,12S,12aR,12bS)-1,2a,3,4,4a,6,9,10,11,12,12a,12b-Dodecahydro-4,6,9,11,12,12b-hexahydroxy-4a,8,13,13-tetramethyl-7,11-methano-5H-cyclodeca(3,4)benz(1,2-b)oxet-5-one 6,12b-diacetate, 12-benzoate, 9-ester with (2R,3S)-N-benzoyl-3-phenylisoserine]
MAPT; mixed model for repeated measurements, longitudinal Toxicity Index in first five cycles, Pr > |t| 0.0118
  Fixed effect Estimate, COL18_3 (MAPT_H14): 0.8918
MAPT; mixed model, longitudinal Toxicity Index in all 21 cycles, Pr > |t| 0.0114
  Fixed effect Estimate, COL18_3 (MAPT_H14): 0.6989
MAPT; multivariable analysis best model, cycle 3, rs242557, TC = 1, CC/TT = 0, P-value 0.012
  Para. Est., TI3 vs MAPT_H14 (multivariable): 1.236
MAPT; univariate linear regression, cycle 1, rs242557, TC = 1, CC/TT = 0, P-value 0.016
  Para. Est., TI1 vs MAPT_H14: 1.151
MAPT; univariate linear regression, cycle 3, rs242557, TC = 1, CC/TT = 0, P-value 0.012
  Para. Est., TI3 vs MAPT_H14: 1.236
CYP3A5; rs776746, GG = 1, AG = 0, P-value 0.022
  Para. Est., TI5 vs CYP3A5_3A (multivariable): 1.477
CYP3A5; univariate linear regression, rs15524, TT = 1, TC = 0, P-value 0.022
  Para. Est., TI5 vs CYP3A5_3A1: 1.477
CYP3A5; univariate linear regression, rs776746, GG = 1, AG = 0, P-value 0.022
  Para. Est., TI5 vs CYP3A5_3A: 1.477
[1]; mixed model, longitudinal Toxicity Index in all 21 cycles, Pr > |t| 0.0244
  Fixed effect Estimate, Received Dose2: 0.002363
